Data from patent EP0022478B1, “Polyhydro-3,7-dimethyl-8-(2-(tetrahydro-4-hydroxy-6-oxo-2H-pyran-2-yl)-ethyl)-1-naphthylenyl-2-methylbutanoates, corresponding hydroxy acids, process for preparing and pharmaceutical compositions containing the same” (Merck & Co., Inc., priority 1979, dated 1981).
Counter-ions that a name gives are not always drawn. Like-named read-outs stand apart in the source and are kept apart here.

Assays:
[1] = target: T1, mouse L―M cells (Mus musculus, UniProt Q01237); assay: Inhibition of sterol synthesis in cell culture (14C sterol from 14C acetic acid); assay type: cell-based
T1 sequence (Q01237 1-887): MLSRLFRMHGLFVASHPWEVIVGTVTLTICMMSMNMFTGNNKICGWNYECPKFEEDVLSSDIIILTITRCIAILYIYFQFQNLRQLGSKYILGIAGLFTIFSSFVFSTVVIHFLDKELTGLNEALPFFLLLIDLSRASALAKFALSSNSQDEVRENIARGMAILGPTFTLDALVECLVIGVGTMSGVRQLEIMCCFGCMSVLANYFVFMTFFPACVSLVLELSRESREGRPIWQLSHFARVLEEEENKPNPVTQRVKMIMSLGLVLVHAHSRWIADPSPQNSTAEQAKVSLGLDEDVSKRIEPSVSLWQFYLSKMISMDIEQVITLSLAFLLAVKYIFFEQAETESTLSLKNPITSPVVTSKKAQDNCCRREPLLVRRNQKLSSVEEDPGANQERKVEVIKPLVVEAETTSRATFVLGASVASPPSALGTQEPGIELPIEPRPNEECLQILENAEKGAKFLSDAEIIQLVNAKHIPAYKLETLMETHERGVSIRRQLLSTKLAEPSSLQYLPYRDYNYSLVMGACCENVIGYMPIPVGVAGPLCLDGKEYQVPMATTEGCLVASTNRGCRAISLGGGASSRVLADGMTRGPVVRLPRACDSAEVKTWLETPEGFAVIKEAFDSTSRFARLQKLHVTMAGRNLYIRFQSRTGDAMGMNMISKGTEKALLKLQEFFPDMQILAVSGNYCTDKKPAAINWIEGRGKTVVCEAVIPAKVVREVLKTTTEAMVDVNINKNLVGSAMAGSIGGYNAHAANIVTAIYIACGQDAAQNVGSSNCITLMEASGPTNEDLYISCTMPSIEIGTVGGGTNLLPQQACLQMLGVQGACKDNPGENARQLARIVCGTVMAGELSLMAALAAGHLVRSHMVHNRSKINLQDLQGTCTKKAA
Method: The procedure of A. W. Alberts et al., J. Biol. Chem. 249: 5241 (1974) measuring the quantity of ^14C sterol biosynthesis frofdm ^14C acetic acid in mouse L―M cells in culture was employed with modification. The test compound in 10 µl DMSO was added to the monolayer cultures with 5 µCi of ^14C acetate. After a 3 hour incubation, the cells were saponified and the ^14C sterol extracted and isolated by thin layer chromatography on silica gel using petroleum ether-diethyl ether-acetic acid (75:25:1). The region on the plate containing ^14C sterol was identified by staining with 12 and the ^14C content determined by liquid scintillation counting.

[2] = Stability of the hydroxy acid on standing
[3] = target: T2, HMG-CoA Reductase (Rattus norvegicus, UniProt P51639); assay: In vitro inhibition of HMG Coenzyme A reductase, Beg method modified by 5 min preincubation of enzyme with inhibitor; assay type: biochemical; details: modified procedure; read-out: IC50 in inhibiting HMG-CoA Reductase
T2 sequence (P51639 1-887): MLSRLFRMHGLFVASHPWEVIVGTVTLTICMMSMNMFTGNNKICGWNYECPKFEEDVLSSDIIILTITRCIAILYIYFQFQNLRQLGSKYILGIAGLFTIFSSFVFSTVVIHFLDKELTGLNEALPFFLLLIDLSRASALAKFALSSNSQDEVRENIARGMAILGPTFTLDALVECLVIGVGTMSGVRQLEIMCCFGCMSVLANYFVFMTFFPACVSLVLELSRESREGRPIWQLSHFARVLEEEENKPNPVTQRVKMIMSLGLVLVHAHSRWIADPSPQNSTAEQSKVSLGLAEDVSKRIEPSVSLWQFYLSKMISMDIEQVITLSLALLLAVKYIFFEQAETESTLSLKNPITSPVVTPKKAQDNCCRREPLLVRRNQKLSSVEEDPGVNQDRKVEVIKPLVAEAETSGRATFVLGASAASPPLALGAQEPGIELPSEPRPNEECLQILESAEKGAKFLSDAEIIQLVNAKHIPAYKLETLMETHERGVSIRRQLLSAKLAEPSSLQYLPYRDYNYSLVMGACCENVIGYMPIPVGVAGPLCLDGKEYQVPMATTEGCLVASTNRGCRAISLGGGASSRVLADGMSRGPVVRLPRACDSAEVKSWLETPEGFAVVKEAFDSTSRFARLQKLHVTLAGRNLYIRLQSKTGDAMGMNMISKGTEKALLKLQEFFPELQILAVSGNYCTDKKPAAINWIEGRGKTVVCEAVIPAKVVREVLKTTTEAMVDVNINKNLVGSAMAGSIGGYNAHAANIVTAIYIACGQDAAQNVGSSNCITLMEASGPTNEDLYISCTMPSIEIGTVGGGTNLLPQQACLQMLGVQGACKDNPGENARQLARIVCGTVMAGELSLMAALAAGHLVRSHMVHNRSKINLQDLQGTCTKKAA
Method: The method of Beg et al., FEBS Letters, 80 123 (1977) was modified slightly by incubating the enzyme with the inhibitor for five minutes before initiating the reaction with the substrate.

[4] = test system: cholesterol synthesis; assay: In vivo inhibition of cholesterol synthesis (14C acetate into 14C cholesterol); set-up: species or system male Holtzman rats; details: 14C acetate IP after one hour, bled 50 minutes later
Method: Groups of male Holtzman rats were dosed with either 5% emulphor in saline or test compound in emulphor by stomach tube. After one hour 80 µCi of ^14C acetate/kg was given IP. The rats were bled 50 minutes later and ^14C cholesterol was determined as a measure of sterol synthesis: […]

[5] = mouse L-M cell monolayers, 3 hour incubation with 14C acetate; read-out: IC50 in inhibiting HMG-CoA reductase

## CCC(C)C(=O)O[C@H]1C[C@@H](C)C=C2C=C[C@H](C)[C@H](CC[C@@H]3C[C@@H](O)CC(=O)O3)[C@H]21 (stereo partly drawn) [Compound I]
[1]; read-out: IC50 in inhibiting HMG-CoA reductase; mouse L-M cell monolayers, 3 hour incubation with 14C acetate
  IC50: 0.022 µM

## CCC(C)C(=O)OC1CC(C)CC2C=CC(C)C(CCC(O)CC(O)CC(=O)O)C21 (stereo not drawn) [Compound IV]
[2]
  stability of hydroxy acid on standing: slowly reverts to the lactone

## CC[C@H](C)C(=O)O[C@H]1CCC=C2C=C[C@H](C)[C@H](CC[C@@H]3C[C@@H](O)CC(=O)O3)[C@H]21 [ML236B, compactin, reference compound]
[3]
  IC50: 0.0054 µM
[1]; [5]
  IC50: 0.046 µM

## CCC(C)C(=O)O[C@H]1C[C@@H](C)C[C@@H]2C=C[C@H](C)[C@H](CC[C@@H]3C[C@@H](O)CC(=O)O3)[C@@H]12 (stereo partly drawn) [Compound II]
[4]; dose 0.15 mg/kg by stomach tube
  % Inhibition: 38%
[4]; dose 0.6 mg/kg by stomach tube
  % Inhibition: 51%
[4]; dose 1.2 mg/kg by stomach tube
  % Inhibition: 70%
[1]; [5]
  IC50: 0.017 µM

## CCC(C)C(=O)O[C@H]1C[C@@H](C)C[C@@H]2C=C[C@H](C)[C@H](CC[C@@H](O)C[C@@H](O)CC(=O)O)[C@@H]12 (stereo partly drawn) [sodium salt of Compound IV]
[3]
  IC50: 0.0027 µM
